Reference: US7820212B2, “Abietane diterpenoid compound, and composition comprising extract of Torreya nucifera, or abietane diterpenoid compounds or terpenoid compounds isolated from them for prevention and treatment of cardiovascular disease” (Korea Research Institute of Bioscience and Biotechnology, priority 2004, dated 2010)

How the values were obtained:
[1] = molecular target: T1, hACAT-2 (Homo sapiens, UniProt O75908); assay: ACAT activity, microsomal fraction of Hi5 cells over-expressing hACAT-2; assay type: biochemical
T1 construct: made in house; host or cells: Hi5 insect cells infected with recombinant baculovirus (virus produced in sf9 cells); microsomal fraction used
T1 sequence (O75908 1-522): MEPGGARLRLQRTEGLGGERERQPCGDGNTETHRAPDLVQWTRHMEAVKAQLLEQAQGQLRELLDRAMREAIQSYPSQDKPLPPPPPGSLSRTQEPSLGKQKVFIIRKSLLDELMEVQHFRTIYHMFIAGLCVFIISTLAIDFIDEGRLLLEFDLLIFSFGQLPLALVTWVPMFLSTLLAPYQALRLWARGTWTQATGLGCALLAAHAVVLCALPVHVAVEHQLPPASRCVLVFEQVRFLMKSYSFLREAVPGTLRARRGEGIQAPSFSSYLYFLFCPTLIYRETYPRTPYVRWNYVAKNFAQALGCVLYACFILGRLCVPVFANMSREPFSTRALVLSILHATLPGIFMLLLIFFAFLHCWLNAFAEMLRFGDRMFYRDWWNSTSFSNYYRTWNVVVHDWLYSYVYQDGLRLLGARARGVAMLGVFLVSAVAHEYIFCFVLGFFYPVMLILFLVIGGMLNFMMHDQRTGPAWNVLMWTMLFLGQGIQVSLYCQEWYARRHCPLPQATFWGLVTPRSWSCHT
Description: (§1) In order to investigate the effect on hACAT-1 and hACAT-2 activities, hACAT-1 and hACAT-2 proteins were first obtained by taking advantage of baculovirus expression system.
(§2) cDNAs of hACAT-1 and hACAT-2 obtained from human liver cDNA library screening were inserted into baculovirus transfer vector, which was then introduced into insect sf9 cells to produce virus. Then, recombinant viruses of HACAT-1 and hACAT-2 were separated by plaque purification method, and amplification was performed three times to increase titer of viral stock. Hi5 insect cells having a good protein expression efficacy were infected with the recombinant virus, making multiplicity of infection as 1, followed by shaking culture at 27° C. for one day.
(§3) The cultured Hi5 cells over-expressing hACAT-1 and hACAT-2 were centrifuged at 500×g for 15 minutes to separate microsomal fraction. Then, cells were crushed in hypotonic buffer by quick freezing quick thawing, followed by ultracentrifugation at 100,000×g for one hour.
(§4) The obtained microsomal fractions were suspended in storage buffer solution, adjusting protein content to 8 mg/ml, which was stored in a deep freezer before using.
(§5) 6.67 μl of cholesterol dissolved in acetone at the concentration of 1 mg/ml was mixed with 6 μl of 10% triton WR 1339 (Sigma Co.) in acetone. And acetone was evaporated by nitrogen gas. Distilled water was added to the resultant mixture to adjust the content of cholesterol to […].
(§6) To 10 μl of cholesterol solution was added 10 μl of 1 M KH2PO4 (pH 7.4), 5 μl of 0.6 mM BSA (bovine serum albumin), 10 μl of the microsomal solution obtained above, 10 μl of sample (T. nucifera extracts or abietane diterpenoid compound isolated from the same) and 45 μl of distilled water (total 90 μl). The mixture was pre-incubated in a 37° C. water bath for 30 minutes.
(§7) 10 μl of [1-^14C]oleyl-CoA solution (0.05 μCi, final concentration 10 μM) was added to the pre-incubated mixture, which was reacted in a 37° C. water bath for 30 minutes. To the mixture was added 500 μl of isopropanol:heptane solution (4:1 (v/v)), 300 μl of heptane and 200 μl of 0.1 M KH2PO4 (pH 7.4), which was stirred vigorously with vortex and then allowed to phase separation under gravity at room temperature for 2 minutes.
(§8) The 200 μl of upper phase was put in a scintillation vial, to which 4 ml of scintillation solution (Lipoluma, Lumac Co.) was added. Radioactivity of the upper phase was measured by a scintillation counter (1450 Microbeta liquid scintillation counter, Wallacoy, Finland).
(§9) ACAT activity was calculated based on the radioactivity, the amount of synthesized cholesteryl oleate, measured above and expressed as a defined unit, pico mole per 1 mg of protein for 1 minute (pico mole/minute/mg protein).

[2] = molecular target: T2, hACAT-1 (Homo sapiens, UniProt P35610); assay: ACAT activity, microsomal fraction of Hi5 cells over-expressing hACAT-1; assay type: biochemical
T2 construct: made in house; host or cells: Hi5 insect cells infected with recombinant baculovirus (virus produced in sf9 cells); microsomal fraction used
T2 sequence (P35610 1-550): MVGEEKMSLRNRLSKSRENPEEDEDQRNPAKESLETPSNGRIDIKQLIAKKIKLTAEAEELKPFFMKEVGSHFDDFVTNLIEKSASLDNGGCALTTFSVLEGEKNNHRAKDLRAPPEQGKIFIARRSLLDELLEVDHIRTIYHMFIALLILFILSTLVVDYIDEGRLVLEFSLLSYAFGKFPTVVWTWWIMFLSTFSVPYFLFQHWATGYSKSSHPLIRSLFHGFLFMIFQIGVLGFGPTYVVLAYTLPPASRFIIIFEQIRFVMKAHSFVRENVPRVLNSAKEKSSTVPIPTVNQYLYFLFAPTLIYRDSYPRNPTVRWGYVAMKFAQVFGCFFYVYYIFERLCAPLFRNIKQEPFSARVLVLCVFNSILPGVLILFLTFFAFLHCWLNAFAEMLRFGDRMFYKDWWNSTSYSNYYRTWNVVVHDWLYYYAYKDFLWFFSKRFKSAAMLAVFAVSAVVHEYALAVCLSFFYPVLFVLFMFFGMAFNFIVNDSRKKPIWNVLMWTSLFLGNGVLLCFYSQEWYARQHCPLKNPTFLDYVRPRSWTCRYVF
Description: as §1, §2, §3, §4, §5, §6, §7, §8, §9

[3] = test system: LDL; assay: Anti-oxidative activity to LDL by TBARS method (Cu2+ mediated LDL-oxidation); assay type: biochemical, human; conditions: 37° C. 4 hours, MDA by TBARS
Description: Cu^2+ is known to mediate LDL-oxidation. Thus, in the present invention, dialdehyde, which is an oxidation product of unsaturated fatty acid formed during Cu^2+ mediated LDL-oxidation, was measured by thiobarbituric acid reactive substances (TBARS) method in order to investigate the LDL anti-oxidative activity of T. nucifera extracts or abietane diterpenoid compound separated from the same (Ahn, B. T. et. al., Low-density Lipoprotein-Antioxidant Constituents of Saururus Chinensis, J. Nat. Prod. 64: 1562, 2001). Centrifugation was performed with 300 ml of human blood plasma by using a ultracentrifuge at 100,000×g for 24 hours to remove floating VLDL/chylomicron layer in the upper part. The specific gravity of the remaining solution was adjusted to 1.063 g/ml. Centrifugation was performed again at 100,000×g for 24 hours, and 25 ml of the floating LDL (1.5˜2.5 mg protein/ml) in the upper layer was separated. […] T. nucifera extracts or abietane diterpenoid compound isolated from the same was dissolved in DMSO (dimethylsulfoxide), and the solution was diluted at different concentrations before use. […] OD540 was measured with a UV/VIS spectrophotometer. Malondialdehyde (MDA) detected by the above coloring was quantified. […] MDA was quantified by using the standard curve in experiments with T. nucifera extracts or abietane diterpenoid compound isolated from the same.

[4] = test system: C57BL/6J mice; assay: Cholesterol-lowering effect in mice on high-fat/high-cholesterol (HFHC) diet; assay type: in vivo; conditions: for HDL-cholesterol / HDL/total cholesterol / Total cholesterol: blood plasma, 1% extracts or 0.1% probucol (wt/wt diet)
Description: 30 specific pathogens free male C57BL/6J mice at the age of 6 weeks were raised in an animal facility, in which temperature was maintained as 22±3° C., humidity was kept as 55±10% and light was regulated as 12L/12D. The mice were adapted for about one week before being used for experiments. When they were at the age of 7 weeks (weight: 20˜22 g), they were divided into […] according to randomized block design. Group 1 mice were given with high-cholesterol/high-fat diet (CRF-1; AIN-76 test animal's normal diet supplemented with 1.25% cholesterol and 15% fat, Orient Yeast Co. Ltd., Japan), group 2 mice were given with high-fat/high-cholesterol (HFHC) diet together with 1% methanol extracts (wt/wt diet) of T. nucifera leaves (or 1% hot water extracts of T. nucifera leaves), and group 3 mice were treated with HFHC diet together with 0.1% probucol (wt/wt diet). All the mice of every group were free to take the diet and water for 10 days. Dietary intake was recorded everyday and weights of animals were measured every 5 days. Upon completion of breeding, all the records were analyzed. […] All the mice in three groups were sacrificed 10 days after the beginning of animal tests, then their blood was examined. Blood was taken from retro-orbital sinus of the sacrified mice by heparin treated capillary tube. Centrifugation was performed with blood at 8,000×g for 10 minutes. Blood plasma was separated from supernatant and then stored in a deep freezer. Total cholesterol content (TC) in blood plasma of each mouse of experimental group was measured by using a blood chemistry analyzer (CIBA Corning 550 Express, USA). In order to measure HDL-cholesterol, HDL measuring reagent (Chiron Diagnostics Co., USA), produced by the modified method for HDL measurement (references [(1) Stein E. A., et al.: Development and evaluation of a method for quantitation of plasma high-density-lipoprotein cholesterol. Clin. Chem. 24: 1112-1115, 1978; (2) Finley P. R., et al.: Cholesterol in high-density lipoprotein: use of Mg^2+/dextran sulfate in its enzymatic measurement. Clin. Chem., 24: 931-933, 1978; (3) Warnick G. R., et al.: Dextran sulfate-Mg^2+ precipitation procedure for quantitation of high-density lipoprotein cholesterol. Clin. Chem. 28: 1379-1388, 1982]) in which dextran sulfate and magnesium sulfate were added to serum of each mouse to precipitate LDL and VLDL and then HDL in supernatant was measured, was mixed with blood plasma of each experimental group at the ratio of 1:10. […] The resultant supernatant was put in a blood chemistry analyzer. A statistical computer program (Microsoft Excel, Version 7.0) was used to investigate and confirm (student t-test) the significance in difference in the results of blood analysis among experimental groups.

## CC(C)c1ccc2c(c1)CC[C@H]1[C@](C)(CO)CCC[C@]21C [Dehydroabietinol, dehydroabietinol]
[1]
  IC50: 60 µM
[2]
  IC50: 41 µM

## C=C[C@@]1(C)CC[C@H]2C(=CC[C@@H]3[C@]2(C)CCC[C@@]3(C)C(=O)O)C1 [Isopimaric acid, isopimaric acid]
[1]
  IC50: 263 µM
[2]
  IC50: 229 µM

## C=C1CCC2[C@](C)(CO)CCC[C@]2(C)[C@H]1CC/C(C)=C\CO (stereo partly drawn) [Kayadiol, kayadiol]
[1]
  IC50: 155 µM
[2]
  IC50: 120 µM

## CC(C)(Sc1cc(C(C)(C)C)c(O)c(C(C)(C)C)c1)Sc1cc(C(C)(C)C)c(O)c(C(C)(C)C)c1 [Probucol]
[3]
  IC50: 1.55 µM
[4]; HFHC diet 10 days
  plasma HDL-cholesterol contents compared with negative control: not much different
[4]; Table 3, HFHC diet 10 days
  HDL-cholesterol: 41.7 ± 6.4 mg/dL
  HDL/total cholesterol: 24.3%
  Total cholesterol: 177.0 ± 33.7 mg/dL
[4]; Table 3 experiment, vs HFHC diet group
  total cholesterol in plasma reduced, comparing to a control: 14.5%
[4]; Table 4, HFHC diet 10 days
  HDL-cholesterol: 44.3 ± 6.5 mg/dL
  HDL/total cholesterol: 24.5%
  Total cholesterol: 180.9 ± 32.6 mg/dL
[4]; Table 4 experiment, vs HFHC diet group
  plasma cholesterol reduced, comparing to a control: 11.5%

## CC(C)c1cc2c(cc1O)[C@@]1(C)CCC[C@@](C)(C=O)C1CC2 (stereo partly drawn) [R = aldehyde, 18-oxoferruginol]
[1]
  IC50: 42 µM
[2]
  IC50: 37 µM

## COC(OC)[C@]1(C)CCC[C@]2(C)c3cc(O)c(C(C)C)cc3CCC12 (stereo partly drawn) [R = dimethoxymethyl, 12-hydroxyabietic-8,11,13-trien-18-dimethylacetal]
[1]
  IC50: 199 µM
[2]
  IC50: 98 µM

## CC(C)c1cc2c(cc1O)[C@@]1(C)CCC[C@@](C)(CO)C1CC2 (stereo partly drawn) [R = hydroxymethyl, 18-hydroxyferruginol]
[1]
  IC50: 65 µM
[2]
  IC50: 74 µM

## CC(C)c1cc2c(cc1O)[C@@]1(C)CCCC(C)(C)[C@@H]1CC2 [R = methyl, ferruginol]
[1]
  IC50: 88 µM
[2]
  IC50: 46 µM

## COC(=O)[C@]1(C)CCC[C@]2(C)c3cc(O)c(C(C)C)cc3CCC12 (stereo partly drawn) [R = methylester, 12-hydroxyabietic-8,11,13-trien-18-oic acid methylester]
[1]
  IC50: 309 µM
[2]
  IC50: 129 µM

## δ-cadinol
[2]
  IC50: 79 µM
